The text below walks through data of patent US10004701B2, “Methods and compositions for treating infection” (UNIVERSITY OF ROCHESTER, priority 2012, dated 2018).

Structures can show the parent of a compound that is named as a salt. Where two headings read alike, the source gives them in different places.

What all share (test): AK assay 384-well format, Prestwick library screening
One assay relates to E. cloacae. It is filed as cell-based, Enterobacter cloacae. The following applies: 50 μM final drug concentration; for fold induction at 50 µM: Enterobacter cloacae, 3 h.
A further assay relates to P. aeruginosa. It is filed as cell-based, Pseudomonas aeruginosa. The following applies: 50 μM final drug concentration; for fold induction at 50 µM: Pseudomonas aeruginosa, 3 h.
In assay [1] the test system is A. baumannii strain 98-37-09. It is filed as cell-based, Acinetobacter baumannii. The following applies: 50 μM final drug concentration; for fold induction at 50 µM: Acinetobacter baumannii, 983709, 3 h.
A further assay has as its system E. faecium. It is filed as cell-based, Enterococcus faecium. The following applies: 50 μM final drug concentration; for fold induction at 50 µM: Enterococcus faecium, 3 h.
The next assay deals with K. pneumoniae. It is filed as cell-based, Klebsiella pneumoniae. The following applies: 50 μM final drug concentration; for fold induction at 50 µM: Klebsiella pneumoniae, 3 h.
Assay [2] deals with S. aureus strain USA300-0114. It is filed as cell-based, Staphylococcus aureus. Particulars: 50 μM final drug concentration; for fold induction at 50 µM: Staphylococcus aureus, USA300, 3 h.
The next assay has as its system E. coli. It is filed as cell-based, Escherichia coli. Particulars: 50 μM final drug concentration; for fold induction at 50 µM: Escherichia coli, 3 h.
[3] abbreviates: planktonic, cutoff for positive-scoring molecules 3-fold increase.
The mark [4] stands for this setting: cutoff for positive-scoring molecules 3-fold increase, read-out: AK-based Prestwick Library Screening Results, E. cloacae (fold increase in extracellular AK activity).
The mark [5] stands for this setting: cutoff for positive-scoring molecules 3-fold increase, read-out: AK-based Prestwick Library Screening Results, P. aeruginosa (fold increase in extracellular AK activity).
Setting [6] is: cutoff for positive-scoring molecules 3-fold increase, read-out: AK-based Prestwick Library Screening Results, A. baumannii (fold increase in extracellular AK activity).
Setting [7] is: cutoff for positive-scoring molecules 3-fold increase, read-out: AK-based Prestwick Library Screening Results, E. faecium (fold increase in extracellular AK activity).
Setting [8] is: cutoff for positive-scoring molecules 3-fold increase, read-out: AK-based Prestwick Library Screening Results, K. pneumoniae (fold increase in extracellular AK activity).
[9] abbreviates: cutoff for positive-scoring molecules 3-fold increase, read-out: AK-based Prestwick Library Screening Results, S. aureus (fold increase in extracellular AK activity).
[10] abbreviates: cutoff for positive-scoring molecules 3-fold increase, read-out: AK-based Prestwick Library Screening Results, E. coli (fold increase in extracellular AK activity).

On to `CC1(C)S[C@@H]2[C@H](NC(=O)[C@H](N)c3ccccc3)C(=O)N2[C@H]1C(=O)OC1OC(=O)c2ccccc21` (stereo partly drawn) [Talampicillin hydrochloride], for which the fold induction at 50 µM was determined as 1.6 in the assay on E. cloacae (planktonic E. cloacae, […], read-out: AK-based Prestwick library screening result, E. cloacae (fold increase in extracellular AK activity)); 1.1 with P. aeruginosa (planktonic P. aeruginosa, […], read-out: AK-based Prestwick library screening result, P. aeruginosa (fold increase in extracellular AK activity)); 0.8 in assay [1] (planktonic A. baumannii, […], read-out: AK-based Prestwick library screening result, A. baumannii (fold increase in extracellular AK activity)); 1.4 in the assay with E. faecium (planktonic E. faecium, […], read-out: AK-based Prestwick library screening result, E. faecium (fold increase in extracellular AK activity)); 0.8 in the assay with K. pneumoniae (planktonic K. pneumoniae, […], read-out: AK-based Prestwick library screening result, K. pneumoniae (fold increase in extracellular AK activity)); 1.2 in assay [2] (planktonic S. aureus, […], read-out: AK-based Prestwick library screening result, S. aureus (fold increase in extracellular AK activity)). Moreover, in the assay with E. coli (planktonic E. coli, […], read-out: AK-based Prestwick library screening result, E. coli (fold increase in extracellular AK activity)), the fold induction at 50 µM was 15.2.

In the case of `O=C([O-])c1ccccc1-c1c2cc(Br)c(=O)cc-2oc2[c]([Hg+])c([O-])c(Br)cc12.[Na+].[Na+].[OH-]` [Merbromin], the “AK-based Prestwick Library Screening Results, E. cloacae (fold increase in extracellular AK activity)” value with E. cloacae ([…]) amounted to 1.4. In the assay on P. aeruginosa ([…]), the “AK-based Prestwick Library Screening Results, P. aeruginosa (fold increase in extracellular AK activity)” value stood at 0.4. In assay [1] ([…]), the “AK-based Prestwick Library Screening Results, A. baumannii (fold increase in extracellular AK activity)” value was 0.7. In the assay with E. faecium ([…]), the “AK-based Prestwick Library Screening Results, E. faecium (fold increase in extracellular AK activity)” value was determined as 0.6. Moreover, the “AK-based Prestwick Library Screening Results, K. pneumoniae (fold increase in extracellular AK activity)” value in the assay with K. pneumoniae ([…]) turned out to be 0.4. The “AK-based Prestwick Library Screening Results, S. aureus (fold increase in extracellular AK activity)” value in assay [2] ([…]) is reported as 0.2. Further, the “AK-based Prestwick Library Screening Results, E. coli (fold increase in extracellular AK activity)” value in the assay with E. coli ([…]) is listed as 0.5.

Consider `C[C@]12CCC(=O)C=C1CC[C@@H]1[C@@H]2[C@@H](O)C[C@@]2(C)[C@H]1CC[C@]2(O)C(=O)CO` [Hydrocortisone base], for which, in the assay on E. cloacae (planktonic E. cloacae, cutoff for positive-scoring molecules 3-fold increase), the “AK-based Prestwick Library Screening Results, E. cloacae (increase in extracellular AK activity)” value is reported as 1.4. For the same molecule, the “AK-based Prestwick Library Screening Results, P. aeruginosa (increase in extracellular AK activity)” value in the assay on P. aeruginosa (planktonic P. aeruginosa, cutoff for positive-scoring molecules 3-fold increase) worked out at 1.1. The “AK-based Prestwick Library Screening Results, A. baumannii (increase in extracellular AK activity)” value in assay [1] (planktonic A. baumannii, cutoff for positive-scoring molecules 3-fold increase) stood at 1.3. In addition, the “AK-based Prestwick Library Screening Results, E. faecium (increase in extracellular AK activity)” value in the assay with E. faecium (planktonic E. faecium, cutoff for positive-scoring molecules 3-fold increase) is reported as 1.0. Also, in the assay on K. pneumoniae (planktonic K. pneumoniae, cutoff for positive-scoring molecules 3-fold increase), the “AK-based Prestwick Library Screening Results, K. pneumoniae (increase in extracellular AK activity)” value stood at 0.9. For the same molecule, the “AK-based Prestwick Library Screening Results, S. aureus (increase in extracellular AK activity)” value in assay [2] (planktonic S. aureus, cutoff for positive-scoring molecules 3-fold increase) was found to be 1.3. Also, the “AK-based Prestwick Library Screening Results, E. coli (increase in extracellular AK activity)” value in the assay with E. coli (planktonic E. coli, cutoff for positive-scoring molecules 3-fold increase) was 1.1.

On to `O.O=C1C(O)=C(O)C(=O)C(O)=C1O` [Tetrahydroxy-1,4-quinone monohydrate], for which the “AK-based Prestwick Library Screening Results, E. cloacae (fold increase in extracellular AK activity)” value in the assay on E. cloacae (setting [3]) came to 1.3. In addition, in the assay on P. aeruginosa (setting [3]), the “AK-based Prestwick Library Screening Results, P. aeruginosa (fold increase in extracellular AK activity)” value amounted to 0.9. In addition, in assay [1] (setting [3]), the “AK-based Prestwick Library Screening Results, A. baumannii (fold increase in extracellular AK activity)” value stood at 1.1. Moreover, the “AK-based Prestwick Library Screening Results, E. faecium (fold increase in extracellular AK activity)” value in the assay with E. faecium (setting [3]) was determined as 0.9. For the same molecule, the “AK-based Prestwick Library Screening Results, K. pneumoniae (fold increase in extracellular AK activity)” value in the assay with K. pneumoniae (setting [3]) came to 0.8. Further, in assay [2] (setting [3]), the “AK-based Prestwick Library Screening Results, S. aureus (fold increase in extracellular AK activity)” value is 0.8. The “AK-based Prestwick Library Screening Results, E. coli (fold increase in extracellular AK activity)” value with E. coli (setting [3]) is recorded as 0.9.

For the molecule `CN(C)[C@@H]1C(O)=C(C(=O)NCN2CCCC2)C(=O)[C@@]2(O)C(O)=C3C(=O)c4c(O)cccc4[C@@](C)(O)[C@H]3C[C@@H]12` [Rolitetracycline], the fold induction at 50 µM in the assay with E. cloacae (setting [4]) stood at 1.7; in the assay with P. aeruginosa (setting [5]) it was 1.1; in assay [1] (setting [6]), 1.2; in the assay with E. faecium (setting [7]), 1; in the assay on K. pneumoniae (setting [8]), 1; in assay [2] (setting [9]), 1.1. Moreover, the fold induction at 50 µM in the assay with E. coli (setting [10]) was found to be 1.1.

In the case of `CCCCN(CCCC)CCC(O)c1cc2c(Cl)cc(Cl)cc2c2cc(C(F)(F)F)ccc12` (stereo not drawn) [Halofantrine hydrochloride], the fold induction at 50 µM in the assay on E. cloacae (planktonic E. cloacae, positive cutoff 3-fold increase, read-out: AK-based Prestwick library screening result, E. cloacae (fold increase in extracellular AK activity)) is 1.3; in the assay on P. aeruginosa (planktonic P. aeruginosa, positive cutoff 3-fold increase, read-out: AK-based Prestwick library screening result, P. aeruginosa (fold increase in extracellular AK activity)), 1.1; in assay [1] (planktonic A. baumannii, positive cutoff 3-fold increase, read-out: AK-based Prestwick library screening result, A. baumannii (fold increase in extracellular AK activity)), 1.3; with E. faecium (planktonic E. faecium, positive cutoff 3-fold increase, read-out: AK-based Prestwick library screening result, E. faecium (fold increase in extracellular AK activity)) it was 1; in the assay with K. pneumoniae (planktonic K. pneumoniae, positive cutoff 3-fold increase, read-out: AK-based Prestwick library screening result, K. pneumoniae (fold increase in extracellular AK activity)), 1.1; in assay [2] (planktonic S. aureus, positive cutoff 3-fold increase, read-out: AK-based Prestwick library screening result, S. aureus (fold increase in extracellular AK activity)) it was 1.2. The fold induction at 50 µM with E. coli (planktonic E. coli, positive cutoff 3-fold increase, read-out: AK-based Prestwick library screening result, E. coli (fold increase in extracellular AK activity)) worked out at 1.

With `CCOC(=O)OC(C)OC(=O)[C@@H]1N2C(=O)[C@@H](NC(=O)[C@H](N)c3ccccc3)[C@H]2SC1(C)C` (stereo partly drawn) [Bacampicillin hydrochloride], the fold induction at 50 µM stood at 0.6 in the assay with E. cloacae (planktonic E. cloacae, cutoff for positive-scoring molecules 3-fold increase, read-out: AK-based Prestwick Library Screening Results, E. cloacae (increase in extracellular AK activity)); 0.6 with P. aeruginosa (planktonic P. aeruginosa, cutoff for positive-scoring molecules 3-fold increase, read-out: AK-based Prestwick Library Screening Results, P. aeruginosa (increase in extracellular AK activity)); 1.3 in assay [1] (planktonic A. baumannii, cutoff for positive-scoring molecules 3-fold increase, read-out: AK-based Prestwick Library Screening Results, A. baumannii (increase in extracellular AK activity)); 1.1 in the assay on E. faecium (planktonic E. faecium, cutoff for positive-scoring molecules 3-fold increase, read-out: AK-based Prestwick Library Screening Results, E. faecium (increase in extracellular AK activity)); 0.6 in the assay on K. pneumoniae (planktonic K. pneumoniae, cutoff for positive-scoring molecules 3-fold increase, read-out: AK-based Prestwick Library Screening Results, K. pneumoniae (increase in extracellular AK activity)); 0.5 in assay [2] (planktonic S. aureus, cutoff for positive-scoring molecules 3-fold increase, read-out: AK-based Prestwick Library Screening Results, S. aureus (increase in extracellular AK activity)). Also, the fold induction at 50 µM in the assay with E. coli (planktonic E. coli, cutoff for positive-scoring molecules 3-fold increase, read-out: AK-based Prestwick Library Screening Results, E. coli (increase in extracellular AK activity)) was found to be 11.9.

In the case of `CCN(CC)CCOC(=O)C(c1ccccc1)C1CCCCC1` (stereo not drawn) [Drofenine hydrochloride], the fold induction at 50 µM in the assay on E. cloacae (setting [4]) came out at 1.5; in the assay with P. aeruginosa (setting [5]) it was 1.2; in assay [1] (setting [6]), 1.3; in the assay on E. faecium (setting [7]) it was 1; in the assay on K. pneumoniae (setting [8]), 1.2; in assay [2] (setting [9]), 1.5. Also, the fold induction at 50 µM in the assay on E. coli (setting [10]) was determined as 1.5.

On to `CN(C)CCCN1c2ccccc2Sc2ccccc21` [Promazine hydrochloride], for which the fold induction at 50 µM in the assay on E. cloacae (setting [4]) was found to be 1.7; in the assay with P. aeruginosa (setting [5]), 1.1; in assay [1] (setting [6]), 0.9; with E. faecium (setting [7]), 1; in the assay on K. pneumoniae (setting [8]), 0.8; in assay [2] (setting [9]), 1.4. In addition, the fold induction at 50 µM in the assay on E. coli (setting [10]) was 1.2.
